This is an account of results in patent publication US20190307783A1, “USE OF ANTIVIRALS TO INHIBIT PROTOZOAN VIRUSES” (priority 2016, published 2019).

Entries after “also recorded” stand apart in the source; their conditions may differ. A value given as a limit tells only on which side of the number the result lay.

The subject of one assay is L. guyanensis (LgyLRV1+). The assay can be described thus: Drug-inhibition test: growth of LgyLRV1+ parasites. The assay is classed as cell-based, Leishmania guyanensis.
For a further assay, the system named is dsRNA LRV1 genome. Put plainly: Quantitative anti-dsRNA slot blots of LRV1 genome. To be noted: LgyLRV1+. The format is cell-based, Leishmania RNA virus 1 in Leishmania guyanensis.
For a further assay, the system named is LbrLRV1. Put plainly: LRV1 inhibition in L. braziliensis strains bearing LRV1. The format is cell-based, Leishmania RNA virus 1 in Leishmania braziliensis. Particulars: Leishmania braziliensis. The method, then: For 2CMA, the EC50 was estimated to be ˜3 μM for LRV1 capsid inhibition, versus >100 μM for parasite growth (FIG. 11A), at least 30-fold selective. […] Several studies were carried out with L. braziliensis strains bearing LRV1 (12). The 2CMA EC50 for LbrLRV1 was similar to that seen with LgyLRV1 (˜3 μM); however, parasites were somewhat more susceptible to growth inhibition (EC50 50-100 μM). Because the available quantities of 7d2CMA were limiting and both compounds were similarly selective for L. guyanensis, we focused thereafter on 2CMA.
Most studies were performed using luciferase-expressing transfectants of L. guyanensis (MHOM/BR/78/M4147) described previously [LRV1^+ LgyM4147/SSU:IR2SAT-LUC(b)c3 and LRV^−LgyM4147/pX63HYG/SSU:IR2SAT-LUC(b)c4] (54); these lines are termed LgyLRV1^+ and LgyLRV1^−, respectively. Two strains of LRV1^+L. braziliensis were examined: LEM2780 (MHOM/BO/90/CS) and LEM3874 (MHOM/BO/99/IMT252 no. 3) (12). Parasites were grown in Schneider's media (Sigma Aldrich, St. Louis, Mo., USA) prepared according to the supplier's instructions with pH adjusted to 6.5 and supplemented with 0.76 mM hemin, 2 μg/mL biopterin, 50 U/mL penicillin, 50 μg/mL streptomycin, and 10% (vol/vol) heat-inactivated FBS. Cell concentrations were determined using a Coulter Counter ([…], Indianapolis, Ind., USA).

A further assay deals with Lgy LRV1 RDRP (Leishmania RNA virus 1 - 4, UniProt Q02382). The assay can be described thus: RDRP assay of purified virions, [α-32P]UTP incorporation. To be noted: concentrations up to 1000 μM; listed as 2CMA. The assay is classed as biochemical, Leishmania RNA virus 1 (Lgy strain M4147). As for the experimental part: RDRP assays were carried out with LRV1 virions purified from Lgy strain M4147 by an established cesium chloride (CsCl) equilibrium ultracentrifugation procedure {Widmer, 1989; Widmer, 1990}. Following separation, virus particles were detected and quantified by their reactivity with an anti-capsid antibody (FIG. 21). We reproducibly observed three overlapping ‘peaks’, designated low-, medium-, and high-density (LD, MD and HD) in order of increasing density. […] The densities of the Lgy LRV1 LD, MD and HD peaks were 1.29, 1.36 and 1.41 g/mL, in good agreement with the densities of L-A virus particles bearing ssRNA- and dsRNA- (1.31 and 1.41 g/mL, respectively) {Esteban, 1986}. […]
To measure RDRP activity, purified virions were allowed to incorporate [α-^32P]UTP in the presence of the remaining nucleoside triphosphates for 1 hour, a time chosen to allow one round of transcription or replication of the viral genome {Widmer, 1990}. RNA was purified and separated by native gel electrophoresis, and the products were visualized and quantified. […]
RDRP activity of purified virions was measured using an [α-^32P]UTP incorporation assay described previously{Widmer, 1990}. […] The standards lane was excised and stained with ethidium bromide, while the radiolabeled products were detected by exposing an imaging plate for 24 hours and reading it with a FLA-5100 phosphoimager (Fujifilm, Tokyo, Japan). […]

Assay [1] concerns LRV1 (LgyLRV1 capsid levels). Particulars: from Kuhlmann, 2017; cited from earlier work.

Lgy LRV1 RDRP, sequence (Q02382 whole entry): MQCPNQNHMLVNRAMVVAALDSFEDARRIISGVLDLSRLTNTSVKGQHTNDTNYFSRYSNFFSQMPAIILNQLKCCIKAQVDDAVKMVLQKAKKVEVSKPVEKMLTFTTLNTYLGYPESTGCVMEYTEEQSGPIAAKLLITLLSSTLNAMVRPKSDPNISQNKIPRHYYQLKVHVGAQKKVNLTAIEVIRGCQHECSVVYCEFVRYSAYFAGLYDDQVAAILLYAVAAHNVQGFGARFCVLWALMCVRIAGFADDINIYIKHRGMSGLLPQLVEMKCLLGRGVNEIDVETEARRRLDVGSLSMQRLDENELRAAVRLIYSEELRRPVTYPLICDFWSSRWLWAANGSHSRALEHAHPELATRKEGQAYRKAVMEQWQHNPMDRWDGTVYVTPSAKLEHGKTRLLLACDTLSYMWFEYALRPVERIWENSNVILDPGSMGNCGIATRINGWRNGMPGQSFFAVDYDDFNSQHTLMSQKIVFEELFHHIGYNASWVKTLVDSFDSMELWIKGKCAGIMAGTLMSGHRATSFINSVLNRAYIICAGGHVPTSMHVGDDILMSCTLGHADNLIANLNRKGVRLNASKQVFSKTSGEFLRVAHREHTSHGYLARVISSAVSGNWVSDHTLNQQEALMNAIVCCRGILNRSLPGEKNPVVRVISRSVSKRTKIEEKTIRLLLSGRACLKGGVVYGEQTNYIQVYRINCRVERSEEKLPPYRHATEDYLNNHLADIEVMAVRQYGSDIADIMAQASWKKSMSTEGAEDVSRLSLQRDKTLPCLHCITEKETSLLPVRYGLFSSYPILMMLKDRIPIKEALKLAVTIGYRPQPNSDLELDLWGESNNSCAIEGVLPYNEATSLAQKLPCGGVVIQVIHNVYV
Description for dsRNA LRV1 genome: RNA slot blot analysis was performed as described previously (36).

As to `C[C@@]1(O)[C@H](O)[C@@H](CO)O[C@H]1n1cnc2c(N)ncnc21` [2′C-methyadenosine, 2′-C-methyladenosine], the Population doubling time with L. guyanensis (LgyLRV1+) (L. guyanensis at 100 μM, untreated 6.4 hours) was 8.5 h. Besides, the activity at 100 µM in the assay with L. guyanensis (LgyLRV1+) (Leishmania guyanensis, 48 h, LgyLRV1+, tested at 100 μM, growth after 2 days, read-out: Percent control (density)) came out at 72%. In addition, the EC50 (in general, the concentration needed to bring the measured effect to its halfway point) in the assay with L. guyanensis (LgyLRV1+) (Leishmania guyanensis, L. guyanensis, relative cellular growth rate, titration, read-out: EC50 for parasite growth) is more than 100000 nM; in the assay with dsRNA LRV1 genome, approximately 1000 nM; in the assay on LbrLRV1, approximately 3000 nM. Besides, the inhibition (in general, the percentage by which the read-out fell short of the control) at 100 µM with L. guyanensis (LgyLRV1+) (Leishmania guyanensis, tested at 100 μM, read-out: Inhibition of parasite density) worked out at 30%. In addition, the “Density (cells/mL)” value in the assay on L. guyanensis (LgyLRV1+) (LgyLRV1+, tested at 100 μM, growth after 2 days) came to 1.22E+7 cells/mL. For the same molecule, the “Inhibition of RDRP activity, in words” value on Lgy LRV1 RDRP was “did not measurably inhibit; also recorded: completely inactive”. Also, the “Concentration that eradicates / completely inhibits LRV1 replication” value in assay [1] was 10 µM.
